Entries after “also recorded” stand apart in the source; their conditions may differ. Where a SMILES comes first, the peptide text is derived from it. The star is where a group is joined. Cbz = O=C(OCc1ccccc1)*; CH2F = FC*
Experiments:
[1] = test system: Fas, caspase 8, caspase 3; experiment: Western blot of Fas, cleaved caspase 8 and cleaved caspase 3 in BMMSCs; type: cell-based, mouse
Procedure: Western blot analysis. Total protein was extracted using M-PER mammalian protein extraction reagent (Thermo, Rockford, Ill.). Nuclear protein was obtained using NE-PER nuclear and cytoplasmic extraction reagent (Thermo). Protein was applied and separated on 4-12% NuPAGE gel (Invitrogen) and transferred to Immobilon™-P membranes (Millipore). The membranes were blocked with 5% non-fat dry milk and 0.1% tween-20 for 1 hour, followed by incubation with the primary antibodies (1:20¬1000 dilution) at 4° C. overnight. Horseradish peroxidase-conjugated IgG (Santa Cruz Biosciences; 1:10,000) was used to treat the membranes for 1 hour, and enhanced with a SuperSignal® West Pico Chemiluminescent Substrate (Thermo). The bands were detected on BIOMAX MR films (Kodak, Rochester, N.Y.). Each membrane was also stripped using a stripping buffer (Thermo) and reprobed with anti-β-actin antibody to quantify the amount of loaded protein.
(§1) SiRNAs for Fas, TNFR2, IKK, FLIP and XIAP were used to treat the BMMSCs according to the manufacture's instruction, and IFN-γ and TNF-α were added for 24 hrs. Inhibitors for internalization (Latrunculin A, 0.2 μM), pan caspase (Z-VAD (OMe)-FMK, 50 μM), caspase 8 ([…], 20 μM) and caspase 3 (Z-DEVD-FMK, 20 µM) were used to treat the BMMSCs at 4 hrs before IFN-γ and TNF-α were added. Cell apoptosis were analysis by immunofluorescence staining and FACS^Calibur (Annexin V-PE apoptosis detection kit I) and Western blot analysis for caspase 8, cleaved caspase 8, caspase 3 and cleaved caspase 3.

BMMSCs [2] = experiment: siRNA and inhibitors: IFN-γ/TNF-α-induced BMMSC death; type: cell-based, mouse; settings: siRNA or inhibitor treatment before IFN-γ/TNF-α, toluidine blue staining
Procedure: as §1

Fas = Fas internalization (immunocytochemical staining); type: cell-based, mouse; settings: caspase inhibitor in IFN-γ/TNF-α-treated BMMSCs vs control group
Procedure: as §1
Fas internalization. P1 BMMSCs were seeded to 2-well chamber slide. IFN-γ (50 ng/ml) was added to pre-treat BMMSCs for 24 hours, and then TNF-α (20 ng/ml) was added. At the 0.5, 1, 2, 4 hours after TNF-α was added, the cells were washed by PBS twice, and fixed with 4% PFA for 15 min. After treated by Triton-X 15 min, the cells were blocked with normal serum matched to secondary antibodies, incubated with 1 μg/ml anti-Fas (Santa Cruz) antibody at room temperature for 2 hours, treated with Rhodamin-conjugated secondary antibodies (1:200, Jackson ImmunoResearch). Then the cells were incubated with ([…] (1:40; Invitrogen) at room temperature for 20 min, and were mounted by vectashield mounting medium DAPI (Vector Laboratories).

TNF-α = experiment: ELISA of TNF-α level in BMMSC implants; type: in vivo, mice; settings: aspirin treatment vs untreated control, 2 to 14 days post implantation
Description: (§2) Kits. Pan T cell isolation kit II and CD4^+CD25^+ regulatory T Cell isolation kit were purchased from Miltenyi Biotec (Bergisch Gladbach, Germany). Mouse IFN-γ, TNF-α, IL-6, IL-17A, IL-4 and IL-10 ELISA Ready-SET-GO kits were purchased from eBioscience (San Diego, Calif.). siRNA kits for Fas, Smad 6, TNFR2, IKK, FLIP and XIAP were purchased from Santa Cruz Biosciences (Santa Cruz, Calif.).

IFN-γ = experiment: ELISA of IFN-γ level in BMMSC implants; type: in vivo, mice; settings: aspirin treatment vs untreated control, 2 to 14 days post implantation
Description: as §2

IL-10 = experiment: ELISA of IL-10 level in BMMSC implants; type: in vivo, mice; settings: aspirin treatment vs untreated control, 2 to 14 days post implantation
Description: as §2

IFN-γ positive cells = experiment: Immunohistochemical staining of IFN-γ positive cells in BMMSC implants; type: in vivo; settings: aspirin treated vs untreated control, C57BL6 mice
Procedure: (§3) Immunofluorescent and immunochemical microscopy. The transplants were harvested, fixed in 4% paraformaldehyde and then decalcified with 5% ethylenediaminetetraacetic acid (EDTA, pH 7.4), followed by paraffin or optimal cutting temperature compound (OCT, Sakura Fineteck Inc., Torrance, Calif.) embedding. The paraffin or frozen sections were blocked with normal serum matched to secondary antibodies, incubated with the specific or isotype-matched mouse antibodies (1:200) overnight at 4° C. For immunofluorescent staining, the samples were treated with Rhodamin/FITC-conjugated secondary antibodies (1:200, Jackson ImmunoResearch, West Grove, Pa.; Southern Biotechnology, Birmingham, Ala.), and were mounted by means of a vectashield mounting medium containing 4′,6-diamidino-2-phenylindole (DAPI) (Vector Laboratories, Burlingame, Calif.). For immunochemical staining, the samples were stained by using Zymed SuperPicture™ Kit (Invitrogen Corporation) according to the manufacturer's instruction.
(§4) Immunochemical microscopy. The transplants were harvested, fixed in 4% paraformaldehyde and then decalcified with 5% ethylenediaminetetraacetic acid (EDTA, pH 7.4), followed by paraffin or optimal cutting temperature compound (OCT, Sakura Fineteck Inc., Torrance, Calif.) embedding. […]

calvarial bone defects = experiment: Calvarial bone defect repair by BMMSC/gelfoam implantation; type: in vivo, C57BL/6J mice
Procedure: Calvarial bone defect model in C57BL/6J mice. The skin of C57BL/6J mice was cut and periosteum was elevated. The surface of mouse cavarial bone was exposed, and oversize bone defects of 7 mm×8 mm were established. The bone defect was larger than usually critical size with diameter of 4 mm.
Implantation of BMMSCs to calvarial bone defects in C57BL/6J mice. 4×10^6 BMMSCs were seeded to a size of 7 mm×8 mm gelfoam (Pharmaca, Boulder, Colo.) and cultured for 3 days in vitro. The gelfoam with BMMSCs was placed to the calvarial bone defects and covered completely by skins. For aspirin treated group, the BMMSCs seeded on gelfoam were pretreated with 50 μg/ml aspirin for 3 days, then placed to the calvarial bone defect. Another gelfoam with 100 μg aspirin as a releasing system was covered on the surface of the gelfoam with BMMSCs (FIG. 14).

[3] = test system: osteoclastogenesis, osteogenesis; settings: literature (13-15); cited from earlier work
GFP^+ BMMSCs = experiment: Cell survival assay, subcutaneous GFP+ BMMSC implantation; type: in vivo, mice
Procedure: Cell survival assay. 4×10^6 BMMSCs isolated from C57BL/6-Tg (CAG-EGFP)1Osb/J mice were combined with different concentrations of IFN-γ (0, 20, 50, 100, 200 ng/ml) and TNF-α (0, 20, 50, 100, 200 ng/ml) and subcutaneously transplanted into immunocompromised mice, hydrogel was used as a slowly released carrier. Thirty days after translation, the implants were harvested and digested in a solution of 3 mg/mL collagenase type I (Worthington Biochem) and 4 mg/mL dispase (Roche) for 1 h at 37° C. Single-cell suspensions were obtained by passing the cells through a 70 μm strainer (BD Bioscience). 1.0-1.5×10^6 BMMSCs were seeded into 100 mm culture dishes (Corning) and incubated for 48 hours under 37° C. at 5% CO2 condition. To eliminate the non-adherent cells, the cultures were washed with PBS twice. The attached cells were cultured for 10 days with alpha minimum essential medium (α-MEM, Invitrogen) supplemented with 20% FBS, 2 mM L-glutamine (Invitrogen), 55 μM 2-mercaptoethanol (Invitrogen), 100 U/ml penicillin, and 100 μg/ml streptomycin (Invitrogen). The numbers of GFP positive cells were counted under fluorescent microscopy.

[4] = test system: BMMSC-mediated bone formation; experiment: BMMSC-mediated bone formation, subcutaneous BMMSC/HA/TCP implantation; type: in vivo; settings: immunocompromised mice
Procedure: BMMSC-mediated bone formation. Approximately 4.0×10^6 BMMSCs were mixed with hydroxyapatite/tricalcium phosphate (HA/TCP) ceramic particles (40 mg, Zimmer Inc., Warsaw, Ind.) as a carrier and subcutaneously implanted into the dorsal surface of 8-10 weeks old immunocompromised mice or C57BL/6J mice. At eight weeks post-implantation, the implants were harvested, fixed in 4% paraformaldehyde and then decalcified with 5% EDTA (pH 7.4), followed by paraffin embedding. The 6 μm paraffin sections were stained with hematoxylin and eosin (H&E) and analyzed by an NIH Image J. Five fields were selected and newly formed mineralized tissue area in each field was calculated and shown as a percentage to total tissue area.
Cytokines in BMMSC-mediated bone formation. Approximately 4.0×10^6 of littermate-derived or autologous BMMSCs were mixed with HA/TCP ceramic powders (40 mg, Zimmer Inc.), and hydrogel (Glycosan Biosysterms, Salt Lake City, Utah) with 200 ng IFN-γ, TNF-α, IL-4, IL-6 or IL-17A were covered on the surface of the implants as a slow released system. At eight weeks post-implantation, the implants were harvested and newly formed mineralized tissue areas were analyzed. […]
BMMSC-mediated bone formation. Approximately 4.0×10^6 of littermate-derived or autologous BMMSCs were mixed with hydroxyapatite/tricalcium phosphate (HA/TCP) ceramic particles (40 mg, Zimmer Inc., Warsaw, Ind.) as a carrier and subcutaneously implanted into the dorsal surface of 8-10 weeks old immunocompromised mice or C57BL6 mice. When aspirin was used, BMMSCs were treated with 50 μg/ml aspirin for 2 days and mixed with HA/TCP particles to be subcutaneously implanted into immunocompromised mice. When IFN-γ and TNF-α were used in the subcutaneous implants, 200 ng IFN-γ, TNF-α or/and 100 μg aspirin mixed with 250 μl hydrogel as a slow released system and subcutaneously co-implanted to the dorsal surface of 8-10 weeks old immunocompromised mice.
At eight weeks post-implantation, the implants were harvested, fixed in 4% paraformaldehyde and then decalcified with 5% EDTA (pH 7.4), followed by paraffin embedding. The 6 μm paraffin sections were stained with hematoxylin and eosin (H&E) and analyzed by an NIH Image J. Five fields were selected and newly formed mineralized tissue area in each field was calculated and shown as a percentage to total tissue area.

TNF-α positive cells = experiment: Immunohistochemical staining of TNF-α positive cells in BMMSC implants; type: in vivo; settings: aspirin treated vs untreated control, C57BL6 mice
Procedure: as §3, §4

BMMSCs [5] = experiment: Cell apoptosis and cell survival assay in vitro (toluidine blue, Annexin V); settings: TNF-α 0, 5, 50, 100 ng/ml, flow cytometric analysis
Procedure: Cell apoptosis and cell survival assay. 0.5×10^6 BMMSCs were seeded to 6-well culture plate and co-cultured with different doses of recombined IL-4, IL-6, IL-17A, TGF-β1, TNF-α and IFN-γ (0, 10, 20, 50, 100, 200 ng/ml) for 3 days. To measure the cell viability, the total cells were analyzed by using a cell counting kit-8 (Dojindo Molecular Technoloies, Gaithersburg, Md.) according to the manufacture's instruction. And the culture plates with cells were stained with 2% toluidine blue O and 2% paraformaldehyde (Sigma-Aldrich Corporate, St. Louis, Mo.).
For cell apoptosis analysis, the BMMSCs were stained by Annexin V-PE apoptosis detection kit I (BD Bioscience) following manufacture's protocol, and analyzed by FACS^Calibur (BD Bioscience).
IFN-γ and TNF-α synergism for apoptosis. For cell apoptosis staining, the 1×10^4 BMMSCs were seeded onto two chambers slide, IFN-γ (50 ng/ml) and TNF-α (20 ng/ml) were used to treat the BMMSCs for 24 hrs either separately or combined, Annexin V-PE apoptosis detection kit I (BD Bioscience) was used to stain the BMMSCs following manufacture's protocol, and analyzed on microscopy and FACS^Calibur (BD Bioscience). Cell viability was analyzed by using cell counting kit, and culture plates were stained with 2% toluidine blue O and 2% paraformaldehyde.
IFN-γ and TNF-α synergism for apoptosis. 0.5×10^6 BMMSCs were seeded to 6-well culture plate and co-cultured with different doses of TNF-α (0, 5, 50, 100 ng/ml) with or without IFN-γ (50 ng/ml) for I day. Then, the BMMSCs were stained by Annexin V-PE apoptosis detection kit I (BD Bioscience) following manufacture's protocol, and analyzed by FACS^Calibur (BD Bioscience).

[6] = siRNA or inhibitor treatment before IFN-γ/TNF-α
[7] = wild type BMMSCs, IFN-γ 50 ng/ml, TNF-α 20 ng/ml, alone or co-stimulated

Compound: CC[C@H](C)[C@H](NC(=O)OCc1ccccc1)C(=O)N[C@@H](CCC(=O)OC)C(=O)N[C@H](C(=O)N[C@@H](CC(=O)OC)C(=O)CF)[C@@H](C)O [Caspase 8 inhibitor, 2-IETD-FMK] (Cbz-IE(OMe)TD(OMe)-CH2F)
- cleaved caspase 3 in IFN-γ/TNF-α-treated BMMSCs [1, 6]: reduce levels
- cleaved caspase 8 in IFN-γ/TNF-α-treated BMMSCs [1, 6]: reduce levels
- IFN-γ/TNF-α-induced BMMSC death (BMMSCs [2]): rescuing INF-γ/TNF-α-induced cell death
- number of BMMSCs with Fas internalization (Fas): reduced number of Fas internalization

Compound: CC(=O)Oc1ccccc1C(=O)O [aspirin]
- level of TNF-α in BMMSC implants (TNF-α): reduces; also recorded: suppressed
- level of IFN-γ in BMMSC implants (IFN-γ): reduces; also recorded: suppressed
- level of IL-10 in BMMSC implants (IL-10): not and without affecting
- IFN-γ positive cells in BMMSC implants (IFN-γ positive cells): significantly decreased; also recorded: suppressive effect
- repair of 7×8 mm calvarial bone defects (calvarial bone defects; BMMSCs cultured with 50 μg/ml aspirin, gelfoam containing 100 μg aspirin, 12 weeks, microQCT, vs BMMSC/gelfoam): completely repaired; also recorded: significantly improves BMMSC-based calvarial defect repairing; also recorded: marked improvement in repairing calvarial defects
- structure of regenerated tissues versus normal calvarial tissues (calvarial bone defects; BMMSCs with gelfoam containing aspirin (100 μg)): analogous to normal calvarial tissues
- osteoclastogenesis [3]: inhibits osteoclastogenesis
- osteogenesis [3]: improves osteogenesis
- numbers of surviving GFP positive BMMSCs in implants (GFP^+ BMMSCs; 50 μg/ml aspirin pre-treated 2 days, 100 μg aspirin co-implanted, 4 to 30 days post implantation): significantly increased numbers of survival cells; also recorded: significant increase in survival of BMMSCs
- BMMSC-mediated bone formation suppressed by IFN-γ or TNF-α ([4]; 200 ng IFN-γ or TNF-α co-implanted, 50 μg/ml aspirin pre-treatment and 100 μg aspirin co-implanted): significant rescuing of BMMSC-mediated bone formation; also recorded: restored bone formation
- amount of new bone formation ([4]; BMMSCs treated with 50 μg/ml aspirin for 2 days, HA/TCP, vs untreated control): increased
- TNF-α positive cells in BMMSC implants (TNF-α positive cells): significantly decreased; also recorded: suppressive effect

Compound: TNF-α
- Fas expression [1, 7]: slightly increase
- activation of caspase 3 and caspase 8 [1, 7]: slightly increase
- BMMSC apoptosis (BMMSCs [5]): dose-dependent BMMSC apoptosis
- numbers of surviving BMMSCs in implants (GFP^+ BMMSCs; TNF-α 50 ng/ml, immunocompromised mice, 30 days post implantation, vs untreated control): marked reduction in the numbers of survived BMMSCs; also recorded: significant reduction in the numbers of surviving cells
- new bone formation in BMMSC implants ([4]; 200 ng cytokine in hydrogel co-implanted with BMMSCs/HA/TCP, 8 weeks post implantation): very limited bone formation; also recorded: inhibited subcutaneous bone formation; also recorded: reduced BMMSC-mediated bone formation; also recorded: significantly reduced bone formation

— patent US20180318355A1, “METHODS AND COMPOSITIONS FOR IMPROVED TISSUE REGENERATION BY SUPPRESION OF INTERFERIN-GAMMA AND TUMOR NECROSIS FACTOR-ALPHA” (Alfred E. Mann Institute for Biomedical Eng. at the …, priority 2011, published 2018)
